# Laboratory results reported in patent US11247972B2, “Compositions and methods for treating toxoplasmosis, cryptosporidiosis, and other apicomplexan protozoan related diseases” (University of Washington through its Center for …, priority 2010, dated 2022).
# Key:
# [1] = tested on: C. parvum; experiment: C. parvum infection of HCT-8 cells (rRNA reverse transcriptase real time PCR); type: cell-based, Cryptosporidium parvum; conditions: inhibitor at time of infection and 1 hour after infection
# [2] = molecular target: TgCDPK1 (Toxoplasma gondii, UniProt Q9BJF5); type: biochemical
# [3] = molecular target: CpCDPK1 (Cryptosporidium parvum (strain Iowa II), UniProt A3FQ16); type: biochemical
# [4] = molecular target: PfCDPK4 (Plasmodium falciparum (isolate 3D7), UniProt Q8IBS5); experiment: biochemical; conditions: read-out: PfCDPK4 (% inhibition @ 3 uM)
# [5] = molecular target: PfCDPK1 (Plasmodium falciparum (isolate 3D7), UniProt P62344); experiment: biochemical; conditions: read-out: PfCDPK1 (% inhibition @ 3 uM)
# [6] = molecular target: SRC (Homo sapiens (Human), UniProt P12931); experiment: Tyrosine kinase SRC counter-screen; type: biochemical
# [7] = molecular target: ABL (Homo sapiens (Human), UniProt P00519)
# [8] = tested on: human promyelocytic leukemia (HL-60); experiment: Growth inhibition / toxicity in human cell line HL-60; conditions: HL60, 10 μM
# [9] = tested on: human lymphocyte (CRL8155); experiment: Growth inhibition / toxicity in human cell line CRL8155; conditions: CRL8155, 10 μM
# [10] = tested on: glioma derived (SF539); experiment: Growth inhibition / toxicity in human cell line SF539
Compound,inhibition at 3 µM [4],"Cell Toxicity HL60, % at 10 μM [8]","Cell Toxicity CRL8155, % at 10 μM [9]",further results
"CC(C)(C)n1nc(-c2ccc3ccccc3c2)c2c(N)ncnc21 [Compound 2, 1-tert-butyl-3-(naphthalen-2-yl)-1H-pyrazolo[3,4-d]pyrimidin-4-amine]",,,,C. parvum parasite levels / proliferation in HCT-8 cells [1]: most potent effect; inhibition of TgCDPK1 (in words) [2]: most potent inhibitor; inhibition of CpCDPK1 (in words) [3]: most potent inhibitor
"Nc1ncnc2c1c(Cc1cccc3ccccc13)nn2CC1CCNCC1 [Compound 5h, 3-(naphthalen-1-ylmethyl)-1-(piperidin-4-ylmethyl)-1H-pyrazolo[3,4-d]pyrimidin-4-amine]",95%,,,inhibition at 3 µM [5]: 66%; inhibition of SRC (in words) [6]: reduced potency; inhibition of ABL (in words) [7]: reduced potency
"Cc1cccc2[nH]c(-c3nn(C(C)C)c4ncnc(N)c34)cc12 [Compound 25, 1-isopropyl-3-(4-methyl-1H-indol-2-yl)-1H-pyrazolo[3,4-d]pyrimidin-4-amine]",92%,47% toxicity at,38% toxicity at,
"CC(C)n1nc(-c2cc3c(Cl)cccc3[nH]2)c2c(N)ncnc21 [Compound 26, 3-(4-chloro-1H-indol-2-yl)-1-isopropyl-1H-pyrazolo[3,4-d]pyrimidin-4-amine]",93%,45% toxicity at,38% toxicity at,
"Nc1ncnc2c1c(-c1ccc3cc(OCc4ccccc4)ccc3c1)nn2CC1CCNCC1 [Compound 34, 3-(6-(benzyloxy)naphthalen-2-yl)-1-(piperidin-4-ylmethyl)-1H-pyrazolo[3,4-d]pyrimidin-4-amine]",97%,,,Cell Toxicity LD50 SF539 [10]: 6 µM
